The values below come from ChEMBL document CHEMBL3797197, “Design and synthesis of triazole-based peptidomimetics of a PSD-95 PDZ domain inhibitor” (Medchemcomm, 2016).

The target of assay [1] is T1, Disks large homolog 4 (Homo sapiens, UniProt P78352). The assay can be described thus: Displacement of Cy5-GluN2B from N-terminal His-tagged full length human PSD-95alpha PDZ2 domain (155 to 249 residues) without exon 4b expressed in Escherichia coli BL21(DE3)pLysS by fluorescence polarization assay. For orientation: Polarisation of emitted light reports the rotation of a fluorescent probe.
Target sequence in this assay (P78352 whole entry, the tested form may be a part): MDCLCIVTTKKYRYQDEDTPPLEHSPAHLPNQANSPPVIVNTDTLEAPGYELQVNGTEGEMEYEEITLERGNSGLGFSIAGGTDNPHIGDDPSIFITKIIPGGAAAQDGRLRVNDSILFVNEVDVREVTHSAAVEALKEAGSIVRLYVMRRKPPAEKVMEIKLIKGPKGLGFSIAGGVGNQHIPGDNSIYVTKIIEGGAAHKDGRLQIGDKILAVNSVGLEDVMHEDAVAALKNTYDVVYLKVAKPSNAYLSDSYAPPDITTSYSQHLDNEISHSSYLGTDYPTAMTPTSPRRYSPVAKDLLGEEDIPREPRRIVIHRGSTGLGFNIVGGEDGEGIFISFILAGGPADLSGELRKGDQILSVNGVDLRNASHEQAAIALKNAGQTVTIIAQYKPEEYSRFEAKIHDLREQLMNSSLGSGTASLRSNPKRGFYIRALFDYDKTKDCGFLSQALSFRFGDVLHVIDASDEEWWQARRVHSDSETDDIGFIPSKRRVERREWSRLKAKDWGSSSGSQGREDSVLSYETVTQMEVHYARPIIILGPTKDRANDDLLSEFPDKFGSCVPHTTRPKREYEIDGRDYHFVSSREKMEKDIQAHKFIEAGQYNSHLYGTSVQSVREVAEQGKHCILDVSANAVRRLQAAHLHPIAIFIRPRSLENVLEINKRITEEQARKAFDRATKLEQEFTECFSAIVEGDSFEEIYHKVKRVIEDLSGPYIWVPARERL

The target in assay [2] is T1, Disks large homolog 4. In words: Displacement of Cy5-CRIPT from N-terminal His-tagged human full length PSD-95alpha PDZ3 domain (309 to 401 residues) without exon 4b expressed in Escherichia coli BL21(DE3)pLysS by fluorescence polarization assay.
Target sequence in this assay (P78352 whole entry, looked up, the tested form may be a part): as the sequence (P78352 whole entry, the tested form may be a part) above
Assay [3] deals with T1, Disks large homolog 4. The assay can be described thus: Displacement of Cy5-GluN2B from N-terminal His-tagged human full length PSD-95alpha PDZ1 domain (61 to 151 residues) without exon 4b expressed in Escherichia coli BL21(DE3)pLysS by fluorescence polarization assay.
Target sequence in this assay (P78352 whole entry, the tested form may be a part): as above
Assay [4] deals with Disks large homolog 4 (Rattus norvegicus, UniProt P31016). In words: Inhibition of rat PSD-95 PDZ1 domain interaction with mouse 5HT2A receptor after 18 hrs by pull down assay.
Sequence of Disks large homolog 4 (Rattus norvegicus, UniProt P31016) (P31016 whole entry, the tested form may be a part): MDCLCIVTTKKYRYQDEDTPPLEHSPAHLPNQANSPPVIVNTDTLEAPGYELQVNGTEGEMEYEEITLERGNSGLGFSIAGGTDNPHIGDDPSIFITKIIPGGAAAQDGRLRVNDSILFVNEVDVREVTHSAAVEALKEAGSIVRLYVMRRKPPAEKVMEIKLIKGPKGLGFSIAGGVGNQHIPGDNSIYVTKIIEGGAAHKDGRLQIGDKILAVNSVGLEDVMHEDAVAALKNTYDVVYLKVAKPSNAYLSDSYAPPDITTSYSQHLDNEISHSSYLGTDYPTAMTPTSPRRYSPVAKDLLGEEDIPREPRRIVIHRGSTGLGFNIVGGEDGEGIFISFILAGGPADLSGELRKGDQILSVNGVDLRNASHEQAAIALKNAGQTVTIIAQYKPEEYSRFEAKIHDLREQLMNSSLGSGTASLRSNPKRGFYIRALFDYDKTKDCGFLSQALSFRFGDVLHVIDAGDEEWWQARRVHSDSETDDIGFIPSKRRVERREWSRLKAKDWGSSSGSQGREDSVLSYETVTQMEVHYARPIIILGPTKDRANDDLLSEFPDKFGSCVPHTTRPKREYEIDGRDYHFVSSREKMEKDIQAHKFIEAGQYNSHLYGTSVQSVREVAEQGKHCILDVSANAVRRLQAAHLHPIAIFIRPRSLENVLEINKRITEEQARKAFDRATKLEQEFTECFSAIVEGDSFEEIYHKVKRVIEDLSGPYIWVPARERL
Assay [5] has as its target T1, Disks large homolog 4. In words: Ratio of Kd for N-terminal His-tagged full length human PSD-95alpha PDZ2 domain (155 to 249 residues) without exon 4b expressed in Escherichia coli BL21(DE3)pLysS by […] method to Ki for N-terminal His-tagged full length human PSD-95alpha PDZ2 domain (155 to 249 residues) without exon 4b expressed in Escherichia coli BL21(DE3)pLysS by fluorescence polarization assay. In general terms: In ITC the heat of successive injections is recorded.
Target sequence in this assay (P78352 whole entry, looked up, the tested form may be a part): as the sequence (P78352 whole entry, the tested form may be a part) above

The target of assay [6] is T1, Disks large homolog 4. In words: Binding affinity to N-terminal His-tagged full length human PSD-95alpha PDZ2 domain (155 to 249 residues) without exon 4b expressed in Escherichia coli BL21(DE3)pLysS by […] method.
Target sequence in this assay (P78352 whole entry, the tested form may be a part): as above
For assay [7], the target named is T1, Disks large homolog 4. In words: Potency index, ratio of indole 1 Ki to compound Ki for N-terminal His-tagged full length human PSD-95alpha PDZ2 domain (155 to 249 residues) without exon 4b expressed in Escherichia coli BL21(DE3)pLysS.
Target sequence in this assay (P78352 whole entry, looked up, the tested form may be a part): as the sequence (P78352 whole entry, the tested form may be a part) above

Calls of active or inactive are those of the source. The calls are words filed in the database; no cut-off is given here. Residues, ends and D or L forms follow the SMILES beside them. Some results are limits rather than exact numbers.

As usually defined, the Ki is the equilibrium dissociation constant of an inhibitor or competing ligand from its target. A high value points to lower affinity. The molecule `CC(C)[C@@H](C(=O)O)n1cc([C@H](C)NC(=O)[C@@H](N)[C@@H](C)O)nn1` came in with an inhibition constant (Ki) at Disks large homolog 4 [1] of more than 500 µM.

In the case of `CC(C)[C@H](NC(=O)c1cn([C@H](C(=O)O)C(C)C)nn1)C(=O)O`, the inhibition constant (Ki) at Disks large homolog 4 [1] is more than 500 µM.

On to `Cc1c(C(=O)O)[nH]c2cc(C(=O)O)c(O)cc12`, for which the Ki is 530 µM on Disks large homolog 4 [1] and more than 1000 µM on Disks large homolog 4 [3]. Besides, the inhibition entry at Disks large homolog 4 [2] was “inactive”.

In general, IC50 refers to the concentration that inhibits the measured activity by half. Read a high IC50 as weaker potency in that assay. As for `Cc1c(C(=O)O)n(CCCC(=O)O)c2cc(C(=O)O)c(OCc3ccccc3)cc12`, the Ki on Disks large homolog 4 [1] was more than 500 µM; at Disks large homolog 4 [3], more than 1000 µM. Besides, the inhibition result at Disks large homolog 4 [2] is “inactive”. This molecule also had an IC50 at Disks large homolog 4 [4] of 190 µM.

One may read the Kd as the equilibrium constant for the complex coming apart. Consider `CC(C)[C@H](NC(=O)[C@H](C)NC(=O)[C@@H](N)[C@@H](C)O)C(=O)O` (H-Thr-Ala-Val-OH), for which the inhibition constant Ki at Disks large homolog 4 [1] is 38 µM; on Disks large homolog 4 [3], 74 µM. Besides, at Disks large homolog 4 [5], the Ratio was 2. In addition, at Disks large homolog 4 [6], the dissociation constant (Kd) was determined as 101 µM.

As for `CC(C)[C@H](NC(=O)[C@H](C)n1cc([C@@H](N)[C@@H](C)O)nn1)C(=O)O`, the Ki at Disks large homolog 4 [1] was 289 µM; on Disks large homolog 4 [3] it was more than 500 µM. Moreover, the Ratio at Disks large homolog 4 [5] stood at 2. Besides, the Ratio Ki at Disks large homolog 4 [7] was 2. For the same molecule, at Disks large homolog 4 [2], the inhibition entry was “inactive”. For the same molecule, the dissociation constant (Kd) on Disks large homolog 4 [6] came to 598 µM.

With `CC(C)[C@H](NC(=O)[C@H](C)NC(=O)[C@@H](N)CO)C(=O)O` (H-Ser-Ala-Val-OH), the values for the inhibition constant Ki at Disks large homolog 4 [1] and on Disks large homolog 4 [3] were 229 µM and 480 µM, respectively.
